{"source": "paper PMC9250296", "about": "(Journal of the American Chemical Society, 2021)", "key": {"CD thermal melts": {"assay": "CD thermal melts", "type": "physicochemical", "conditions": "CD thermal melt, Trp-Trp exciton coupling band at 228 nm, aqueous solution"}, "[1]": {"assay": "HeLa cell lysate stability assay", "conditions": "for primary degradation products in HeLa cell lysate: after 24 hours, mass spectrometry; for remaining at 4 h / half-life: human"}, "in vitro": {"assay": "in vitro", "conditions": "human, cells or culture medium"}}, "note": "Numbered stars: 1 amine (or outer) side, 2 acyl side, 3 side chain; on linkers, the order of the positions; unused ones are H or OH. Bridge positions count the residues as written; N and C are the ends. Square brackets hold non-standard residues; d marks the D form. Peptide text beside a SMILES is read from it. * marks the point of attachment. X1 = O=C([C@@H]1C[C@@H](SCc2cccc(C[*:3])c2)CN1[*:1])[*:2]; X2 = C=CCS[C@@H]1C[C@@H](C(=O)[*:2])N([*:1])C1; Ac3c = NC1(C(=O)O)CC1; Allyl = C=CC*"}
{"compound": "C=CCSC[C@H](NC(=O)[C@@H](Cc1ccc(O)cc1)NC(=O)[C@H](Cc1c[nH]c2ccccc12)NC(=O)[C@@H](NC(=O)[C@@H](N)CCCCN)[C@@H](C)O)C(=O)N[C@H](C(=O)N1CCC[C@@H]1C(=O)NC1(C(=O)NCC(=O)N2C[C@H](SCC=C)C[C@H]2C(=O)NCC(=O)N[C@@H](Cc2c[nH]c3ccccc23)C(=O)N[C@H](C(=O)N[C@@H](CCC(=O)O)C(=O)O)[C@@H](C)O)CC1)[C@@H](C)O", "note": "[4MP-a] (H-KTW[dY]C(Allyl)T[dP][Ac3c]G[X2]GWTE-OH; N-terminus and C-terminus assumed)", "values": [{"measurement": "T50 (temperature at which the peptide retains 50% structure)", "setting": "CD thermal melts", "value": 50.8, "unit": "°C"}, {"measurement": "primary degradation products in HeLa cell lysate", "setting": "[1]", "value": "intact except for the two N-terminal amino acids"}, {"measurement": "remaining at 4 h", "setting": "[1]", "value": "~22", "unit": "%"}]}
{"compound": "C[C@@H](O)[C@H](NC(=O)[C@H](Cc1c[nH]c2ccccc12)NC(=O)CNC(=O)[C@@H]1C[C@@H]2CN1C(=O)CNC(=O)C1(CC1)NC(=O)[C@H]1CCCN1C(=O)[C@H]([C@@H](C)O)NC(=O)[C@@H](NC(=O)[C@@H](Cc1ccc(O)cc1)NC(=O)[C@H](Cc1c[nH]c3ccccc13)NC(=O)[C@@H](NC(=O)[C@@H](N)CCCCN)[C@@H](C)O)CSCc1cccc(c1)CS2)C(=O)N[C@@H](CCC(=O)O)C(=O)O", "note": "[4MP-m] (H-KTW[dY]CT[dP][Ac3c]G[X1]GWTE-OH; thioether 5-10; N-terminus and C-terminus assumed)", "values": [{"measurement": "T50 (temperature at which the peptide retains 50% structure)", "setting": "CD thermal melts", "value": 58.5, "unit": "°C"}, {"measurement": "primary degradation products in HeLa cell lysate", "setting": "[1]", "value": "intact except for the two N-terminal amino acids"}, {"measurement": "remaining at 4 h", "setting": "[1]", "value": "~7", "unit": "%"}]}
{"compound": "C[C@H](NC(=O)[C@@H]1CCCN1C(=O)[C@H](CC(N)=O)NC(=O)[C@H](Cc1c[nH]c2ccccc12)NC(=O)[C@@H](NC(=O)[C@@H](N)CCCCN)[C@@H](C)O)C(=O)N[C@H](C(=O)NCC(=O)N[C@@H](CCCCN)C(=O)N[C@@H](Cc1c[nH]c2ccccc12)C(=O)N[C@H](C(=O)N[C@@H](CCC(=O)O)C(=O)O)[C@@H](C)O)[C@@H](C)O", "note": "[HP7, reference compound] (H-KTWNPATGKWTE-OH; N-terminus and C-terminus assumed)", "values": [{"measurement": "T50 (temperature at which the peptide retains 50% structure)", "setting": "CD thermal melts", "value": 58.7, "unit": "°C"}, {"measurement": "remaining at 2 h", "setting": "in vitro", "value": "~0", "unit": "%"}]}
{"compound": "C=CCSC[C@H](NC(=O)[C@@H](Cc1ccc(O)cc1)NC(=O)[C@H](Cc1c[nH]c2ccccc12)NC(=O)[C@@H](NC(C)=O)[C@@H](C)O)C(=O)N[C@H](C(=O)N1CCC[C@@H]1C(=O)NC1(C(=O)NCC(=O)N2C[C@H](SCC=C)C[C@H]2C(=O)NCC(=O)N[C@@H](Cc2c[nH]c3ccccc23)C(=O)N[C@H](C(N)=O)[C@@H](C)O)CC1)[C@@H](C)O", "note": "[Δ4MP-a] (Ac-TW[dY]C(Allyl)T[dP][Ac3c]G[X2]GWT-NH2; N-terminus and C-terminus assumed)", "values": [{"measurement": "half-life", "setting": "[1]", "value": 30, "unit": "h"}]}
{"compound": "CC(=O)N[C@H](C(=O)N[C@@H](Cc1c[nH]c2ccccc12)C(=O)N[C@H](Cc1ccc(O)cc1)C(=O)N[C@H]1CSCc2cccc(c2)CS[C@@H]2C[C@@H](C(=O)NCC(=O)N[C@@H](Cc3c[nH]c4ccccc34)C(=O)N[C@H](C(N)=O)[C@@H](C)O)N(C2)C(=O)CNC(=O)C2(CC2)NC(=O)[C@H]2CCCN2C(=O)[C@H]([C@@H](C)O)NC1=O)[C@@H](C)O", "note": "[Δ4MP-m] (Ac-TW[dY]CT[dP][Ac3c]G[X1]GWT-NH2; thioether 4-9)", "values": [{"measurement": "half-life", "setting": "[1]", "value": 21, "unit": "h"}]}
{"compound": "CC(=O)N[C@H](C(=O)N[C@@H](Cc1c[nH]c2ccccc12)C(=O)N[C@@H](CC(N)=O)C(=O)N1CCC[C@H]1C(=O)N[C@@H](C)C(=O)N[C@H](C(=O)NCC(=O)N[C@@H](CCCCN)C(=O)N[C@@H](Cc1c[nH]c2ccccc12)C(=O)N[C@H](C(N)=O)[C@@H](C)O)[C@@H](C)O)[C@@H](C)O", "note": "[ΔHP7] (Ac-TWNPATGKWT-NH2; N-terminus and C-terminus assumed)", "values": [{"measurement": "remaining at 2 h", "setting": "in vitro", "value": "~19", "unit": "%"}]}
